From ChEMBL document CHEMBL1649130, “In vitro activity of Iclaprim against respiratory and bacteremic isolates of Streptococcus pneumoniae” (Antimicrob Agents Chemother, 2009) come the findings set out here.

Usually MIC stands for the lowest concentration found to suppress growth. A high value points to a need for much substance. In general, MIC50 refers to an inhibitory concentration at the 50% level, which refers to growth in some studies and to a panel of isolates in others.

In brackets after ≈: the same amount, converted by molar mass.

In data set [1] the test system is Streptococcus pneumoniae. The data set is described as follows: Antimicrobial activity against compound-resistant Streptococcus pneumoniae by broth microdilution method. For orientation: In broth dilution the organism is exposed to a series of concentrations in liquid medium.
The subject of data set [2] is Streptococcus pneumoniae. The data set is described as follows: Antimicrobial activity against compound-intermediate Streptococcus pneumoniae by broth microdilution method.
Data set [3] has as its system Streptococcus pneumoniae. As to the kind of experiment: Antimicrobial activity against Streptococcus pneumoniae assessed as resistant isolates broth microdilution method. It counts as functional.
The subject of data set [4] is Streptococcus pneumoniae. As to the kind of experiment: Antimicrobial activity against compound-susceptible Streptococcus pneumoniae by broth microdilution method.
Data set [5] deals with Streptococcus pneumoniae. As to the kind of experiment: Antimicrobial activity against SXT-susceptible Streptococcus pneumoniae by broth microdilution method. It counts as functional.
Data set [6] concerns Streptococcus pneumoniae. The data set is described as follows: Antimicrobial activity against penicillin-susceptible Streptococcus pneumoniae by broth microdilution method. It counts as functional.
Data set [7] concerns Streptococcus pneumoniae. As to the kind of experiment: Antimicrobial activity against Doxycycline-susceptible Streptococcus pneumoniae by broth microdilution method. It counts as functional.
Data set [8] in a line: Drug concentration in epithelial lining fluid of patient with Streptococcus pneumoniae infections at 1.6 mg/kg, iv administered as single 60 mins infusion measured after 1 to 2 hrs. Set-up: dose 1.6 mg/kg, route intravenous. As to conditions: human, in vivo. It counts as ADME, organism-based.
The nature of data set [9]: Drug concentration in epithelial lining fluid of patient with Streptococcus pneumoniae infections at 1.6 mg/kg, iv administered as single 60 mins infusion measured after 3 to 4 hrs. It counts as ADME, organism-based. Set-up: dose 1.6 mg/kg, route intravenous. As to conditions: human, in vivo.
Data set [10] is described as follows: Drug concentration in alveolar macrophages of patient with Streptococcus pneumoniae infections at 1.6 mg/kg, iv administered as single 60 mins infusion measured after 5.5 to 7 hrs. It counts as ADME, organism-based, Macrophage. As to conditions: human, in vivo. Set-up: dose 1.6 mg/kg, route intravenous.
Data set [11] is described as follows: Drug concentration in epithelial lining fluid of patient with Streptococcus pneumoniae infections at 1.6 mg/kg, iv administered as single 60 mins infusion measured after 5.5 to 7 hrs. It counts as ADME, organism-based. Details: dose 1.6 mg/kg, route intravenous. To be noted: human, in vivo.
A short description of data set [12]: Drug concentration in alveolar macrophages of patient with Streptococcus pneumoniae infections at 1.6 mg/kg, iv administered as single 60 mins infusion measured after 1 to 2 hrs. As to conditions: human, in vivo. Details: dose 1.6 mg/kg, route intravenous. It counts as ADME, organism-based, Macrophage.
For data set [13], the system named is Streptococcus pneumoniae. As to the kind of experiment: Antimicrobial activity against Ciprofloxacin-susceptible Streptococcus pneumoniae by broth microdilution method. It counts as functional.
The nature of data set [14]: Drug concentration in alveolar macrophages of patient with Streptococcus pneumoniae infections at 1.6 mg/kg, iv administered as single 60 mins infusion measured after 3 to 4 hrs. It counts as ADME, organism-based, Macrophage. Set-up: dose 1.6 mg/kg, route intravenous. To be noted: human, in vivo.
Where [15] appears, read: Streptococcus pneumoniae, read-out: MIC50.

`O=C(O)c1cn(C2CC2)c2cc(N3CCNCC3)c(F)cc2c1=O` [CIPROFLOXACIN]: the MIC was at least 4 mg/L in [1], 2 mg/L (≈ 6.04 µM) in [2] and at most 1 mg/L in data set [4]. Further, the Activity in [3] is 1.7%.
On to `CC[C@H]1OC(=O)[C@H](C)[C@@H](O[C@H]2C[C@@](C)(OC)[C@@H](O)[C@H](C)O2)[C@H](C)[C@@H](O[C@@H]2O[C@H](C)C[C@H](N(C)C)[C@H]2O)[C@](C)(OC)C[C@@H](C)C(=O)[C@H](C)[C@@H](O)[C@]1(C)O` [CLARITHROMYCIN], for which the Activity in [3] was found to be 11.8%.
Take `C[C@H]1c2cccc(O)c2C(=O)C2=C(O)[C@]3(O)C(=O)C(C(N)=O)=C(O)[C@@H](N(C)C)[C@@H]3[C@@H](O)[C@@H]21.O` [DOXYCYCLINE]: in data set [3], the Activity is 0.9%.
As to `COc1cc(Cc2cnc(N)nc2N)c2c(c1OC)OC(C1CC1)C=C2` (stereo unspecified) [ICLAPRIM], the MIC50 was 0.06 mg/L (≈ 0.169 µM) in [5]; at most 0.03 mg/L in [5] (setting [15]); 0.06 mg/L (≈ 0.169 µM) in data set [6]; at most 0.03 mg/L in data set [6] (setting [15]); 0.06 mg/L (≈ 0.169 µM) in data set [7]; at most 0.03 mg/L in data set [7] (setting [15]). In addition, the values for the MIC50 in [13] and in data set [13] (setting [15]) were 0.06 mg/L (≈ 0.169 µM) and at most 0.03 mg/L, respectively. Also, the Drug uptake in [8] turned out to be 12.61 µg/mL; in data set [9] it was 6.38 µg/mL; in data set [10], 5.28 µg/mL; in data set [11] it was 2.66 µg/mL; in data set [12], 24.5 µg/mL; in [14] it was 7.16 µg/mL.
For `CC1(C)S[C@@H]2[C@H](NC(=O)Cc3ccccc3)C(=O)N2[C@H]1C(=O)O` [PENICILLIN G], in data set [3], the Activity was determined as 6.8%.
